# Reference: US11319348B2, “Synthetic beta-amyloid peptides capable of forming stable antigenic oligomers” (The Regents of the University of California, priority 2016, dated 2022)
# Non-standard residues stand in square brackets, D forms with d. No end group written: not given here. NMeF = CN[C@@H](Cc1ccccc1)C(=O)O; Orn = NCCC[C@H](N)C(=O)O
# What was measured:
# SH-SY5Y cells = assay: LDH release assay; assay type: cell-based, human; conditions: for LDH release / toxicity toward SH-SY5Y cells, in words / LDH release / lowest concentration with increased LDH release / toxicity (concentrations as low as): SH-SY5Y cells; for LDH release: 72 h
# Procedure: Aβ is known to be toxic toward neurons and neuronally derived cells (I. Benilova, et al., 2012, cited supra). To corroborate the toxicity of Aβ, we prepared oligomers of Aβ42 and studied their toxicity toward a human neuroblastoma cell line, SH-SY5Y. Aβ oligomers were prepared according to the procedure developed by Teplow and coworkers using recombinantly expressed Aβ42 pretreated with NH4OH (purchased from rPeptide) (D. B. Teplow, Methods Enzymol. 2006 413, 20-33; and Y. Fezoui, et al., Amyloid. 2000 7, 166-178; the disclosures of which are incorporated herein by reference). Under the conditions of the oligomer preparation, Aβ42 forms predominantly monomer, trimer, and tetramer as assessed by SDS-PAGE (FIG. 28A). It was also observed that bands migrated with molecular weights consistent with a pentamer and hexamer. SH-SY5Y cells were treated with varying concentrations of Aβ42, and toxicity was evaluated using a lactate dehydrogenase (LDH) release assay. Aβ42 increased LDH release in a dose-dependent manner at concentrations as low as 2.5 μM, corroborating the toxicity of Aβ42 (FIG. 28B).
# It was hypothesized that trimers 3 and 4 may elicit toxicity similarly to Aβ42. The toxicities of trimers 3 and 4 towards SH-SY5Y cells were evaluated using an LDH assay, using deionized water (vehicle) and peptides 1 and 2 as controls. Trimer 4 increased LDH release in a dose-dependent manner at concentrations as low as 1.5 μM, indicating toxicity toward SH-SY5Y cells (FIG. 29A). LDH release was observed as early as 48 h after addition to the cells and reached a maximum after 72 h.
# Many oligomers formed by full-length Aβ are toxic toward cells (I. Benilove, E. Karan, and B. De Strooper, Nat. Neurosci. 2012 15, 349-357; and M. E. Larson and S. E. Lesne J. Neurochem. 2012 120, 125-139; the disclosures of which are incorporated herein by reference). To test whether the oligomers formed by peptide 8 are also toxic, the toxicity of peptide 8 toward neuronally derived SH-SY5Y cells were evaluated using a lactate dehydrogenase (LDH) release assay. Peptide 8 and 10 were compared to investigate how the hexamer-forming Aβ16-36-derived peptide compares to a non-oligomerizing homologue. The toxicity of peptides 2 and 11 were also evaluated to better understand the relationship between oligomerization and toxicity.
# The toxicities of peptides 1 and […], and trimers 3 and 4 toward SH-SY5Y cells were assessed by LDH release and caspase-3 activation assays. Cells were incubated in the presence or absence of equivalent concentrations of peptides 1 or 3, or trimers 3 and 4 for 72 h in 96-well plates. The LDH release assay was performed using the Pierce LDH Cytotoxicity Assay Kit from Thermo Scientific. The caspase-3 assay was performed using the Roche APO-One Homogeneous Caspase-3/7 Assay. Experiments were performed in replicates of five and an additional 10 wells were used for controls. Cells were cultured in the inner 60 wells (rows B-G, columns 2-11) of the 96-well plate. DMEM:F12 media (100 μL) was added to the outer wells (rows A and H, columns 1 and 12), in order to ensure the greatest reproducibility of data generated in the inner wells.
# A 10 mg/mL stock solution of peptides 1 or […], or trimers 3 and 4 was prepared gravimetrically by dissolving 1 mg of each compound in 100 μL of deionized water that was either filtered through a 0.2 μm syringe filter or autoclaved. The stock solution was used to create 180 μM working solutions of peptides 1 or 3, or 60 μM working solutions of trimers 3 and 4 (these solutions contain equivalent concentrations of peptide). The 180 μM working solutions of peptides 1 and 2 were serially diluted with deionized water to create 90 μM working solutions of peptides 1 and 2. The 60 μM working solutions of trimers 3 and 4 were serially diluted with deionized water to create 30 μM, 15 μM, and 7.5 μM working solutions of trimers 3 and 4.
# SH-SY5Y cells were plated in a 96-well plate at 30,000 cells per well. […]
# [1] = Tricine SDS-PAGE with silver staining; assay type: physicochemical
# Source text: Trimer 3 migrates as a single band at a molecular weight consistent with a hexamer. Trimer 4, in contrast, migrates as two distinct bands: a band consistent with the molecular weight of a dodecamer, and a band consistent with the molecular weight of a trimer.
# Peptide 8 assembles to form a hexamer in SDS-PAGE. […] To further confirm the oligomerization state of […], it was compared to covalent trimers 3 and 4 (FIGS. 19A and 19B), which was previously determined to migrate respectively as 10.6 kDa hexamers and 21.2 kDa dodecamers in equilibrium with the 5.3 kDa trimers. Peptide 8 migrates at the same molecular weight as the hexamer band of trimer 3, providing further evidence that peptide 8 assembles to form a hexamer in SDS-PAGE.
# The oligomerization of peptides 1 and 2 and trimers 3 and 4 was studied by Tricine SDS-PAGE.
# Each peptide or trimer was dissolved in deionized water to a concentration of 10 mg/mL. An aliquot of the 10 mg/mL solutions was diluted with deionized water to create 2 mg/mL solutions of peptides 1 and 2, or 0.12 mg/mL solutions of trimers 3 and 4. The […] of peptides 1 and 2, as well as the 0.12 mg/mL solutions of trimers 3 and 4 were further diluted with 2×SDS-PAGE loading buffer (100 mM Tris buffer at pH 6.8, 20% (v/v) glycerol, and 4% SDS) to create 1 mg/mL working solutions of peptides 1 and 2, and 0.06 mg/mL working solutions of trimers 3 and 4. A 5 μL aliquot of each working solution was run on a 16% polyacrylamide gel with a 4% stacking polyacrylamide gel. The gels were run at a constant 60 volts at 4° C.
# Staining with silver nitrate was used to visualize peptides 1 and 2 and trimers 3 and 4 in the SDS-PAGE gel. Briefly, the gel was removed from the casting glass and rocked in fixing solution (50% (v/v) methanol and 5% (v/v) acetic acid in deionized water) for 20 min. Next, the fixing solution was discarded and the gel was rocked in 50% (v/v) methanol for 10 min. Next, the 50% methanol was discarded and the gel was rocked in deionized water for 10 min. Next, the water was discarded and the gel was rocked in 0.02% (w/v) sodium thiosulfate in deionized water for 1 min. The sodium thiosulfate was discarded and the gel was rinsed with deionized water (2×). After the last rinse, the gel was submerged in chilled 0.1% (w/v) silver nitrate in deionized water and rocked at 4° C. for 20 min. Next, the silver nitrate solution was discarded and the gel was rinsed with deionized water (2×). To develop the gel, the gel was incubated in developing solution (2% w/v sodium carbonate, 0.04% formaldehyde until the desired intensity of staining was reached (˜1-3 min). When the desired intensity of staining was reached, the development was topped by discarding the developing solution and submerging the gel in 5% acetic acid.
# [2] = after addition to SH-SY5Y cells
Substance,"LDH release / toxicity toward SH-SY5Y cells, in words (SH-SY5Y cells)",LDH release (SH-SY5Y cells),oligomer size by SDS-PAGE [1],lowest concentration with increased LDH release / toxicity (concentrations as low as) (SH-SY5Y cells),oligomer state by migration in SDS-PAGE [1],time at which LDH release reached a maximum (SH-SY5Y cells; [2]),time at which LDH release was first observed (as early as) (SH-SY5Y cells; [2])
"peptide 1: macrocyclic β-sheet peptide: Aβ17-23 and Aβ30-36 strands linked by two δOrn turns, Orn35, N-methyl on G33 (Seq. ID 18-19)",little or no LDH release,no,1-2,–,–,–,–
"peptide 2: macrocyclic β-sheet peptide: Aβ17-23 and Aβ30-36 strands linked by two δOrn turns, Orn35, N-methyl on F20 (Seq. ID 20-21)",little or no LDH release,no,1-2,100 µM,monomer or dimer,–,–
"trimer 3: symmetric tris-disulfide crosslinked trimer generated from peptide 3 (chain 1 [Orn]CVFFCED; chain 2 [Orn]AIIGL[Orn]V; not fully specified (some residues); also: symmetric tris-disulfide crosslinked trimer, macrocyclic by macrolactamization, linkage of strands not given here)",far less LDH release than trimer 4,some,6,–,hexamer,–,–
"trimer 4: symmetric tris-disulfide crosslinked trimer generated from peptide 4 (chain 1 [Orn]CVF[NMeF]CED; chain 2 [Orn]AIIGL[Orn]V; also: symmetric tris-disulfide crosslinked trimer, macrocyclic by macrolactamization, linkage of strands not given here)",–,yes,–,1.5 µM,–,72 h,48 h
